Measurements: patent publication US20030096022A1, “Compositions and methods for the treatment and prevention of cardiovascular diseases and disorders, and for identifying agents therapeutic therefor” (Medlyte, Inc., priority 2000, published 2003)

Experiments:
[1] = test system: Langendorff rat heart model of ischemia; test: Global ischemia and reperfusion in isolated Langendorff-perfused rat heart (left ventricular pressure); conditions: 0.1 mM gentamicin recirculated 30 min, 40 min global ischemia, 45 min reperfusion; FIG. 5
Excerpt: The protocol used was essentially that described by Sakai et al. (A device for recording left ventricular contraction and electrocardiogram in nonworking isolated perfused rat heart, Jpn J Pharmacol 28:223-9, 1978), and Zelinski et al., (Phosphatidylcholine biosynthesis in isolated hamster heart, J Biol Chem. 255:11423-8, 1980) with the exception, in the latter instance, that rat studies were used in the experiments described herein instead of hamster hearts.
In brief, rats were anesthetized and their hearts were excised. The isolated hearts were cannulated and attached to Langendorff perfusion apparatus, and perfused with KH buffer. The hearts were allowed to stabilize for 5-10 min. After stabilization, the hearts should be paceable and drip rate should be between 5 and 10 mls per minute.
A small hole was cut in the left atrium of each animal to expose the mitral valve. A deflated transducer balloon was introduced into the left ventricle through the hole in left atrium. The transducer tube was taped and adjusted so that there was no pressure on the heart. Left ventricular pressure was measured and recorded using the MacLab program. […]
After about 45 min., the perfusate was turned off and the ventricular pressure was no longer recorded. […]

[2] = test system: Adult rat cardiomyocytes; test: Hypoxia-induced sphingosine (SPH) production/release in cultured adult cardiomyocytes, HPLC of extracted sphingolipids; type: cell-based; conditions: cells pretreated 30 min with TNFRII:Fc 0.5 ng/mL or L-carnitine 20 ng/mL prior to 5 h hypoxia, FIG. 4
Description: Adult rat cardiomyocytes were subjected to hypoxic conditions as described above and assayed for their ability to produce sphingolipid bases involved in the sphingomyelin signal transduction cascade.
Cardiomyocytes were cultured on plastic dishes that were placed in a humidified modular incubator chamber (ICN Biomedicals, Aurora, Ohio) pressurized to 0.04-0.05 psi by the particular gas mixture used in the treatment. Warm (37° C.) Tyrode's solution containing 0.2 mM BSA, ampicillin ([…]), kanamycin (100 mg/mL) and fungizone (20 μg/mL) was gassed in a 50 mL sterile conical for 15 minutes with 95%N2/5% CO2 prior to adding the solution to the cultured cells. The pO2 was monitored by a Micro pO2 System oxygen electrode (Lasar Research Labs, Los Angeles, Calif.) and found to be 4.0 PPM for the duration of the hypoxia condition. […] The pH of control and experimental cell cultures was monitored with a micro pH electrode (Beetrode pH Electrodes, Sarasota, Fla.) and remained constant at pH=7.26+/−0.02 for normoxic cells and 7.15+/−0.03 for hypoxic cells throughout the experiment. […]
The HPLC analysis was performed using a Beckman (Fullerton, Calif.) System Gold 118 Solvent Module and 507e Autosampler. A Jasco (Easton, Md.) FP-920 Intelligent Fluorescence Detector was used with an excitation wavelength of 330 nm and emission wavelength of 455 nm. […]

[3] = molecular target: tumor necrosis factor alpha (TNFα) released by hypoxic rat cardiomyocytes (rat) (UniProt P16599); test: cell-based or functional assay
Chain of tumor necrosis factor alpha (TNFα) released by hypoxic rat cardiomyocytes (rat) (P16599 80-235 limits assumed): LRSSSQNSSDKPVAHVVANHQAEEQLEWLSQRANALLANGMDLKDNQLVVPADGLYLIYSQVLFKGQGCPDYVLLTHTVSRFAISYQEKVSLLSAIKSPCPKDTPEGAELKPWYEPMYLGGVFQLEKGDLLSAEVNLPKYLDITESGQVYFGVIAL

Compound: Gentamicin Sulfate
- ischemia and reperfusion injury [1]: mitigated

Compound: C[N+](C)(C)C[C@H](O)CC(=O)[O-] [L-carnitine]
- reducing the amount of total SPH (hypoxia-induced production of sphingosine) [2]: significantly (p<0.01) reducing
- reducing the amount of total SPH (hypoxia-induced production of sphingosine) ([2]; listed as L-camitine): blocks

Compound: TNFRII:Fc receptor fragment (from UniProt P20333 23-257) (Fc fusion)
- SPH release from hypoxic adult rat cardiomyocytes (HPLC) [3]: 3 fold
